According to the OPERA property sets (Mansouri et al. 2018):

Settings: for log10 BCF / log10 biotransformation half-life (days): fish

Structure (SMILES)	boiling point	log10 vapour pressure (mmHg)	melting point	other results
Fc1ccccc1	84.7 °C	1.89	-42.2 °C	log10 Henry constant (atm·m³/mol): -2.2
Clc1ccc(C(Cl)(Cl)Cl)c(Cl)c1				ready biodegradability: not readily biodegradable
Cc1ccc(S)c(S)c1			29 °C	
FC(F)(F)C(F)(Cl)Cl	4 °C	3.21	-56.6 °C	
CCC1(C)CC(=O)NC1=O (stereo not given)			65 °C	
O=C(c1cc(O)c(O)c(O)c1)c1ccc(O)c(O)c1O			270 °C	
C=CCNS(=O)(=O)c1cc(S(N)(=O)=O)c(Cl)cc1/N=C/C=C(/C)O			206 °C	
CC(C)CNC(=O)N1CCNC1=O			95.5 °C	
N#CCc1ccccc1C(F)(F)F			33 °C	
CC(C)NC(C)C	83.9 °C	1.9	-61 °C	
O=C(O)c1cc(Cl)c(O)c(Cl)c1			265 °C	
C=C(c1ccccc1)c1ccccc1	277 °C	-1.88	8.2 °C	
CN(C)c1ccc(N=C2C=CC(=O)C=C2)cc1			134 °C	
OCc1cccc(Cl)c1	237 °C			log10 BCF: 1.29
O=C(N/N=C/c1ccccc1O)c1ccncc1			232 °C	
C#CCCCCC#C	136 °C			
ClC1CCCCC1	142 °C	0.828	-44 °C	ready biodegradability: not readily biodegradable; log10 BCF: 2.34; log10 biotransformation half-life (days): 0.41
COC(=O)/C(C)=C/OP(=S)(OC)OC		-2.92		
O=Cc1ccc(Cl)cc1Cl	233 °C		72 °C	
O=S(=O)(Cl)CCCl	202 °C			
CN(C)c1ccc(C=Cc2ccccc2)cc1			150 °C	
Nc1ccc([N+](=O)[O-])cc1	332 °C	-5.49	146 °C	log10 Henry constant (atm·m³/mol): -8.9; log10 Koc (L/kg): 1.88; ready biodegradability: not readily biodegradable; log10 BCF: 0.6; log10 biotransformation half-life (days): -0.51
CCCCCOC(=O)COc1cc(N2C(=O)C3=C(CCCC3)C2=O)c(F)cc1Cl			89 °C	
CC[C@H]1CCCC[C@H]1C	154 °C			
COP(=S)(OC)Oc1ccc(S(=O)(=O)N(C)C)cc1			53 °C	ready biodegradability: readily biodegradable
COc1cc(C=O)ccc1O	285 °C	-3.93	81.5 °C	ready biodegradability: readily biodegradable
CO/C=C(/C(=O)OC)c1ccccc1Oc1cc(Oc2ccccc2C#N)ncn1		-12.1	116 °C	
CC(C)CC(=O)CC(C)C	169 °C	0.217	-41.5 °C	

Structure (SMILES)	boiling point	log10 vapour pressure (mmHg)	melting point	other results
N=C(N)N1CCc2ccccc2C1			279 °C	
C1CN1P1(N2CC2)=NP(N2CC2)(N2CC2)=NP(N2CC2)(N2CC2)=N1			148 °C	
OC[C@]1(O)OC[C@@H](O)[C@H](O)[C@@H]1O			134 °C	
C1=CCCC1	44.2 °C	2.58	-135 °C	ready biodegradability: readily biodegradable
O=Cc1ccc(O)c(O)c1O			160 °C	
O=C(Oc1ccccc1)Oc1ccccc1	306 °C	-3.82	83 °C	
COc1ccc(C(=O)O)cc1	276 °C		185 °C	ready biodegradability: readily biodegradable
CCCCCCCCCCCCCCCCCCCO			63.3 °C	
CC(=O)I	108 °C	1.51		
O=C(O)C1C(c2ccccc2)C(C(=O)O)C1c1ccccc1 (stereo not given)			228 °C	
O=C(O)COc1ccc(Cl)cc1CO		-6.18	141 °C	
O=[N+]([O-])c1ccc(Br)c(Cl)c1				log10 Koc (L/kg): 2.6
Clc1cc(Cl)c(Cl)c(Cl)c1		-1.26	54.5 °C	log10 Henry constant (atm·m³/mol): -2.8; log10 Koa: 5.55; log10 Koc (L/kg): 3.2; log10 BCF: 3.59
CN(C)c1ccc(N=Nc2ccccc2)cc1		-7.15	117 °C	log10 Koc (L/kg): 3.87
COC1CCC=CO1 (stereo not given)	118 °C	1.04	16 °C	
CC(=O)Oc1cccc(O)c1	283 °C			
Cc1cc2cccc(CCCC(C)C)c2cc1C				log10 biotransformation half-life (days): 0.06
Clc1ccc(-c2cc(Cl)c(Cl)c(Cl)c2Cl)c(Cl)c1				log10 biotransformation half-life (days): 2.34
C=COC=O		2.5		
CC(C)Oc1cc(-n2nc(C(C)(C)C)oc2=O)c(Cl)cc1Cl		-6.95	90 °C	log10 Koc (L/kg): 3.51; ready biodegradability: not readily biodegradable; log10 BCF: 3.08; log10 biotransformation half-life (days): 0.77
CC(C)=CCCC=C(C)C	166 °C		-74.4 °C	
Cl[C@H]1CC[C@@H](Cl)CC1			18 °C	
Cc1n[nH]c(C)c1Cl	221 °C		118 °C	
CCCCCCC(=O)OC(=O)CCCCCC	270 °C		-12.4 °C	
CCCCSP(=O)(SCCCC)SCCCC		-5.28		log10 Henry constant (atm·m³/mol): -6.53; log10 Koc (L/kg): 3.7; ready biodegradability: readily biodegradable
COc1ccc(Cl)nn1			84.5 °C	
CC1(C)[C@H](/C=C(\Cl)C(F)(F)F)[C@@H]1C(=O)O[C@H](C#N)c1cccc(Oc2ccccc2)c1		-8.47		log10 Koc (L/kg): 5.26
